Results on 52 compounds are retold here after US8476197B2, “Aminopropenoates as fungicides” (priority 2009, dated 2013).

In general, Log P refers to the decadic logarithm of the partition coefficient of the neutral form, usually between octanol and water.

Marks after values point to notes of the source that are not given here.

For one data set the following is noted: pH 2.3.
`CCOC(=O)C(C#N)=C(Nc1ccccc1SC)c1cccnc1Cl` [Compound 341]: the “Log P” value is on record as 3.32.
`COC(=O)C(C#N)=C(NC(CO)C(N)=O)c1cccnc1Cl` (stereo not drawn) [Compound 570]: the “Log P” value came out at 0.97.
Regarding `C#CCNC(=O)C(C#N)=C(NC(C)C(C)C)c1cccnc1Cl` (stereo not drawn) [Compound 991], the “Log P” value stood at 2.69.
On to `CCOC(=O)C(C#N)=C(Nc1ccc(F)cc1F)c1cccnc1Cl` [Compound 1600], for which the “Log P” value is 2.95.
On the same count and under the same terms, the same measure for `CSc1ccccc1NC(=C(C#N)C(=O)OCC(F)(F)F)c1cccnc1Cl` [Compound 344]: 3.55.

The data set is the same for the next values; noted with them: pH 2.7.
On to `CCOC(=O)C(C#N)=C(NC1(C(=O)OC(C)CC)CC1)c1cc(C)oc1C` (stereo not drawn) [Compound 618], for which the “Log P” value was 3.94^[a].
For the compound `CCOC(=O)C(C#N)=C(NC(C)C1CC1)c1ccnc(Cl)c1F` (stereo not drawn) [Compound 1318], the “Log P” value was 3.5^[a].
As to `CCOC(=O)C(C#N)=C(NC(C)c1ccc(Cl)cc1)c1ccncc1F` (racemic) [Compound 546], the “Log P” value is 3.48^[a].
Same read-out and setting: the same measure for `CCOC(=O)C(C#N)=C(Nc1ccccc1OC(F)(F)F)c1cn(C)nc1C(F)F` [Compound 1227]: 3.42^[a].
The same measure, in the same setting: the same measure for `CCOC(=O)C(C#N)=C(NC(C(=O)OC)C(C)C)c1cn(C)nc1C(F)F` (stereo not drawn) [Compound 675]: 2.84^[a]; for `CCOC(=O)C(C#N)=C(NC(C)c1cc(Cl)ccn1)c1cccnc1Cl` (stereo not drawn) [Compound 1449]: 3^[a].
As for `CCOC(=O)C(C#N)=C(NC(C(=O)OC)C(C)C)c1sc(C)nc1C(F)(F)F` (racemic) [Compound 681], the “Log P” value was 3.64^[a].
Regarding `CCOC(=O)C(C#N)=C(NC(C)CN(C)C)c1sccc1C(F)(F)F` (stereo not drawn) [Compound 608], the “Log P” value is 1.63^[a].
Turning to `CC#CC(C)NC(=C(C#N)C(=O)OCC)c1cn(C)nc1C(F)F` (stereo not drawn) [Compound 1142], the “Log P” value was 2.8^[a].
On the same count and under the same terms, the same measure for `CCOC(=O)C(C#N)=C(NC(C)c1ncccn1)c1cccnc1Cl` (stereo not drawn) [Compound 329]: 2.13^[a].
Turning to `CCOC(=O)C(C#N)=C(NC(C)C(C)C)c1c(C)nn(C)c1F` (stereo not drawn) [Compound 936], the lipophilicity (Log P) is 3.19^[a].
Regarding `CCOC(=O)C(C#N)=C(NC(C)Cn1cccn1)c1cccnc1Cl` (racemic) [Compound 278], the “Log P” value was 2.23^[a].
Take `CCOC(=O)C(C#N)=C(NC(C)C(=O)NC)c1c(C)nn(C)c1Cl` (stereo not drawn) [Compound 606]: the log partition coefficient (Log P) was 1.7^[a].
On to `CCOC(=O)C(C#N)=C(NC(C)c1ccccn1)c1c(C(F)F)nn(C)c1Cl` (racemic) [Compound 156], for which the “Log P” value is 2.81^[a].
The same measure, in the same setting: the same measure for `CCOC(=O)C(C#N)=C(NC(C)c1ccccn1)c1c(C)nn(C)c1F` (racemic) [Compound 50]: 2.28^[a].
On to `CCOC(=O)C(C#N)=C(NC(C)c1ccccc1Cl)c1cn(C)nc1C(F)F` (racemic) [Compound 553], for which the “Log P” value was 3.46^[a].
Consider `CCOC(=O)C(C#N)=C(Nc1ccccc1SC)c1c(C)nn(C)c1Cl` [Compound 410], for which the “Log P” value is 3.42^[a].
For `CCOC(=O)C(C#N)=C(NC(C)c1nccs1)c1ccnc(Cl)c1F` (stereo not drawn) [Compound 1313], the “Log P” value was 2.96^[a].
For `CCOC(=O)C(C#N)=C(NCc1ccccn1)c1sccc1Br` [Compound 99], the “Log P” value is 2.61^[a].
In the case of `CCOC(=O)C(C#N)=C(NC(C)c1nc(C)c(C)s1)c1sccc1C(F)(F)F` (stereo not drawn) [Compound 97], the “Log P” value was 3.92^[a].
Take `CCOC(=O)C(C#N)=C(Nc1ccccc1SC)c1cn(C)nc1OC` [Compound 507]: the “Log P” value is 3.06^[a].
`CCOC(=O)C(C#N)=C(NC(C)CC(C)C)c1cc(C)oc1C` (racemic) [Compound 779]: the “Log P” value is 4.35^[a].
On the same count and under the same terms, the same measure for `CCOC(=O)C(C#N)=C(NC(C#N)c1cnn(-c2ccccc2)c1)c1cn(C)nc1C(F)F` (stereo not drawn) [Compound 1232]: 3.15^[a].
For the compound `CCOC(=O)C(C#N)=C(NC(C)c1nn(C)c(=O)n1C)c1cc(Cl)ncc1Cl` (racemic) [Compound 255], the “Log P” value is 3.76^[a].
As to `CC(C)C(C)NC(=C(C#N)C(=O)O)c1cccnc1Cl` (stereo not drawn) [Compound 956], the “Log P” value is 2.2^[a].
For `CCOC(=O)C(C#N)=C(NC(C)c1cccs1)c1sccc1C(F)(F)F` (stereo not drawn) [Compound 209], the log partition coefficient (Log P) is 3.99^[a].
As to `CCOC(=O)C(C#N)=C(NC(C)c1nccs1)c1cn(C)nc1CC` (stereo not drawn) [Compound 1213], the “Log P” value was 2.35^[a].
Consider `CCOC(=O)C(C#N)=C(NC(C)C1CCCO1)c1cn(C)nc1C(F)F` (stereo not drawn) [Compound 199], for which the “Log P” value is 2.58^[a].
Still for that read-out and setting: the same measure for `CCOC(=O)C(C#N)=C(NC(C)c1nccs1)c1ccsc1Br` (stereo not drawn) [Compound 105]: 3.1^[a].
The same measure, in the same setting: the same measure for `CCOC(=O)C(C#N)=C(NC(C)c1cnc(Cl)s1)c1cccnc1Cl` (stereo not drawn) [Compound 1444]: 3.1^[a]; for `CCOC(=O)C(C#N)=C(NC(C)C(C)(C)C)c1sccc1Br` (racemic) [Compound 921]: 4.41^[a]; for `CCOC(=O)C(C#N)=C(Nc1ccccc1SCC(F)(F)F)c1cc(C)oc1C` [Compound 416]: 4.3^[a].
The same measure, in the same setting: the same measure for `CCOC(=O)C(C#N)=C(NC1CCc2cccnc21)c1cccnc1Cl` (stereo not drawn) [Compound 1436]: 2.4^[a]; for `CCOC(=O)C(C#N)=C(NCc1nccs1)c1sccc1Br` [Compound 88]: 2.67^[a]; for `CCOC(=O)C(C#N)=C(NC(C)c1ccn(C)n1)c1cccnc1Cl` (racemic) [Compound 276]: 2.3^[a].
Consider `CCOC(=O)C(C#N)=C(NC(c1ccc(Cl)cc1)C1CC1)c1cn(C)nc1C(F)F` (stereo not drawn) [Compound 1363], for which the “Log P” value was 3.89^[a].
As to `CCOC(=O)C(C#N)=C(Nc1cccc(SC)c1)c1sc(C)nc1C(F)(F)F` [Compound 505], the “Log P” value is 3.89^[a].
Consider `CCOC(=O)C(C#N)=C(NC(C)c1ccc(Cl)cc1)c1cn(C)nc1OC` (racemic) [Compound 506], for which the “Log P” value was 3.51^[a].
`CCOC(=O)C(C#N)=C(NC(C)C1CC1)c1ccncc1C(F)(F)F` (racemic) [Compound 905]: the “Log P” value was 3.2^[a].
With `CCC#CC(C)(C)NC(=C(C#N)C(=O)OC)c1cccnc1Cl` [Compound 1025], the “Log P” value was 2.98^[a].
With `CCOC(=O)/C(C#N)=C(\NC(C)(C)C)c1nc(SC)ncc1Br` [Compound 776], the “Log P” value is 3.82^[a].
As for `CCOC(=O)C(C#N)=C(NC(C)c1ncc(C)s1)c1cn(C)nc1C(F)F` (stereo not drawn) [Compound 190], the “Log P” value was 2.68^[a].
On the same count and under the same terms, the same measure for `CC(C)C(C)NC(=C(C#N)C(=O)NC1CCC1C)c1cccnc1Cl` (stereo not drawn) [Compound 1511]: 4.01^[a].

The data set is the same for the next values; noted with them: pH 7.5.
Turning to `CC(C)OC(=O)C(C#N)=C(NC(C)C(C)C)c1cccnc1Cl` (stereo not drawn) [Compound 946], the “Log P” value was found to be 3.69.
Take `CCOC(=O)C(C#N)=C(Nc1ccccc1SC)c1cccnc1Cl` [Compound 341]: the “Log P” value is 3.17.
Still for that read-out and setting: the same measure for `CCOC(=O)C(C#N)=C(NC(C)C1CC1)c1cccnc1Cl` (stereo not drawn) [Compound 878]: 2.93; for `COC(=O)C(C#N)=C(NC(CO)C(N)=O)c1cccnc1Cl` (stereo not drawn) [Compound 570]: 0.79; for `COC(=O)C(C#N)=C(N[C@H](C)C1CCCCC1)c1cccnc1Cl` [Compound 871]: 3.76.
Turning to `CCOC(=O)C(C#N)=C(NC(C)c1ccccn1)c1ccc(Cl)nc1Cl` (stereo not drawn) [Compound 1381], the “Log P” value turned out to be 3.06.
For `C#CCNC(=O)C(C#N)=C(NC(C)C(C)C)c1cccnc1Cl` (stereo not drawn) [Compound 991], the “Log P” value is given as 2.68.
In the case of `CCOC(=O)C(C#N)=C(Nc1ccc(F)cc1F)c1cccnc1Cl` [Compound 1600], the “Log P” value was determined as 2.9.
Turning to `CSc1ccccc1NC(=C(C#N)C(=O)OCC(F)(F)F)c1cccnc1Cl` [Compound 344], the “Log P” value is reported as 3.21.
